# Assay results as given in patent US20100227859A1, “TRICYCLIC COMPOUNDS AS MATRIX METALLOPROTEINASE INHIBITORS” (priority 2007, published 2010).
# Target: purified human MMP-12 enzyme (Homo sapiens, UniProt P39900)
# Experiment: MMP-12 FRET assay
# Assay type: biochemical
# Conditions: substrate 20 μM, room temperature
# Experimental: Compounds according to the present teachings were tested in an MMP-12 FRET assay as follows. To each well of black polystyrene 96-well plate was added assay buffer (50 mM HEPES (pH 7.4), 100 mM NaCl, 5 mM CaCl2 and 0.005% Brij-35 (Polyoxyethyleneglycol dodecyl ether, Pierce cat#20150), purified human MMP-12 enzyme, and varied concentrations of test compounds (prepared by serial dilution of a stock solution in 100% DMSO). The plates were incubated at room temperature for 30 minutes. The enzymatic reactions were initiated by addition of a substrate, MCA-Pro-Leu-Gly-Leu-Dpa(DNP)-Ala-Arg, containing a fluorescent group (7-methoxycoumarin, MCA) and a 2,4-dinitrophenyl group (DNP), to a final concentration of 20 μM. The final DMSO concentration in the assay was 10%. The reaction was monitored for 30 minutes at room temperature and the initial rate of the cleavage reaction was determined using a fluorescence plate reader (λex: 325 nm, λem: 395 nm). Plots of the inhibitor concentration vs. the initial cleavage rate were fit to the following equation: y=Vmax*(1−(x^n/(K^n+x^n))), whereby x=inhibitor concentration, y=initial rate, Vmax=initial rate in the absence of inhibitor, n=slope factor, and K=IC50 for the inhibition curve.
# Chain of purified human MMP-12 enzyme (P39900 106-470): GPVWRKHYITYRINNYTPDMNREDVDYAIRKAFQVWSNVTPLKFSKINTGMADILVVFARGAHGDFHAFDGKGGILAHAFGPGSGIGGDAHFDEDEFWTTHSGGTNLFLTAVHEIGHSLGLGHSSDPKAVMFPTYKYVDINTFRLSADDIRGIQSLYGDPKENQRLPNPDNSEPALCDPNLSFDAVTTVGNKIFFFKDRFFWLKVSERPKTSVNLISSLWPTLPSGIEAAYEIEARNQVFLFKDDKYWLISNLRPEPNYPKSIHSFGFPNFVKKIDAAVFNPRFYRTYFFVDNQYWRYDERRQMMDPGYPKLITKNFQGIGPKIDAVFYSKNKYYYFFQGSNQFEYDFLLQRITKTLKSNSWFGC
row,Compound,IC50
1,"CC(C)[C@@H](NS(=O)(=O)c1ccc2c(c1)oc1ccc(-c3ccc4c(c3)C(C)(C)OC(=O)N4)cc12)C(=O)O [Compound 1, (R)-2-(8-(4,4-dimethyl-2-oxo-2,4-dihydro-1H-benzo[d][1,3]oxazin-6-yl)dibenzo[b,d]furan-3-sulfonamido)-3-methylbutanoic acid]",11 nM
2,"CC(C)[C@H](NS(=O)(=O)c1ccc2c(c1)oc1ccc(C#CCN(C)C)cc12)C(=O)O [Compound 2, (S)-2-(8-(3-(dimethylamino)prop-1-ynyl)dibenzo[b,d]furan-3-sulfonamido)-3-methylbutanoic acid]",2.4 nM
3,"CC(C)[C@H](NS(=O)(=O)c1ccc2c(c1)oc1ccc(-c3cccnc3)cc12)C(=O)O [Compound 3, (S)-3-methyl-2-(8-(pyridin-3-yl)dibenzo[b,d]furan-3-sulfonamido)butanoic acid]",< 1.5 nM
4,"CC(C)[C@H](NS(=O)(=O)c1ccc2c(c1)oc1ccc(-c3ccc4c(c3)C(C)(C)OC(=O)N4)cc12)C(=O)O [Compound 4, (S)-2-(8-(4,4-dimethyl-2-oxo-2,4-dihydro-1H-benzo[d][1,3]oxazin-6-yl)dibenzo[b,d]furan-3-sulfonamido)-3-methylbutanoic acid]",12.2 nM
5,"Cc1cscc1-c1ccc2oc3cc(S(=O)(=O)N[C@H](C(=O)O)C(C)C)ccc3c2c1 [Compound 5, (S)-3-methyl-2-(8-(4-methylthiophen-3-yl)dibenzo[b,d]furan-3-sulfonamido)butanoic acid]",2.2 nM
6,"COC(=O)C#Cc1ccc2oc3cc(S(=O)(=O)N[C@H](C(=O)O)C(C)C)ccc3c2c1 [Compound 6, (S)-2-(8-(3-methoxy-3-oxoprop-1-ynyl)dibenzo[b,d]furan-3-sulfonamido)-3-methylbutanoic acid]",30.4 nM
7,"Cc1noc(C)c1-c1ccc2oc3cc(S(=O)(=O)N[C@H](C(=O)O)C(C)C)ccc3c2c1 [Compound 9, (S)-2-(8-(3,5-dimethylisoxazol-4-yl)dibenzo[b,d]furan-3-sulfonamido)-3-methylbutanoic acid]",10.7 nM
8,"COc1ccc(-c2ccc3oc4cc(S(=O)(=O)N[C@H](C(=O)O)C(C)C)ccc4c3c2)cn1 [Compound 10, (S)-2-(8-(6-methoxypyridin-3-yl)dibenzo[b,d]furan-3-sulfonamido)-3-methylbutanoic acid]",< 1.5 nM
9,"CC(C)[C@H](NS(=O)(=O)c1ccc2c(c1)sc1ccc(-c3cccnc3)cc12)C(=O)O [Compound 11, (S)-3-methyl-2-(8-(pyridin-3-yl)dibenzo[b,d]thiophene-3-sulfonamido)butanoic acid]",15.6 nM
10,"CC(C)[C@H](NS(=O)(=O)c1ccc2c(c1)oc1ccc(-c3csc4ccccc34)cc12)C(=O)O [Compound 12, (S)-2-(8-(benzo[b]thiophen-3-yl)dibenzo[b,d]furan-3-sulfonamido)-3-methylbutanoic acid]",< 1.5 nM
11,"CC(C)[C@H](NS(=O)(=O)c1ccc2c(c1)oc1ccc(-c3cc4ccccc4s3)cc12)C(=O)O [Compound 13, (S)-2-(8-(benzo[b]thiophen-2-yl)dibenzo[b,d]furan-3-sulfonamido)-3-methylbutanoic acid]",1.7 nM
12,"CC(C)[C@H](NS(=O)(=O)c1ccc2c(c1)oc1ccc(-c3ccc4ncccc4c3)cc12)C(=O)O [Compound 14, (S)-3-methyl-2-(8-(quinolin-6-yl)dibenzo[b,d]furan-3-sulfonamido)butanoic acid]",< 1.5 nM
13,"CC(C)[C@H](NS(=O)(=O)c1ccc2c(c1)oc1ccc(C#Cc3cncn3C)cc12)C(=O)O [Compound 15, (S)-3-methyl-2-(8-((1-methyl-1H-imidazol-5-yl)ethynyl)dibenzo[b,d]furan-3-sulfonamido)butanoic acid]",< 1.5 nM
14,"CC(C)[C@H](NS(=O)(=O)c1ccc2c(c1)oc1ccc(-c3ccncc3)cc12)C(=O)O [Compound 16, (S)-3-methyl-2-(8-(pyridin-4-yl)dibenzo[b,d]furan-3-sulfonamido)butanoic acid]",< 1.5 nM
